Source: patent EP4029501A1, “COMBINATION OF POLYAROMATIC UREA DERIVATIVES AND GLUCOCORTICOID OR HDAC INHIBITOR FOR THE TREATMENT OF DISEASES OR CONDITIONS ASSOCIATED WITH MUSCLE CELLS AND/OR SATELLITE CELLS” (Anagenesis Biotechnologies, priority 2021, dated 2022)
Where a name gives a salt, the structure may show the parent alone.

System: muscle progenitors derived from DMD hiPSC
Assay: Myotube assay: total myotube area per well (alpha-actinin staining)
Assay type: cell-based, human
Conditions: Homo sapiens, Myotube, 72 h, DMD or WT cell source not given; for Emax: efficacy, MA = normalized Myotube Area, 3 days incubation; for EC50: myogenic activity, half-maximal generation of myotubes, 10 points dose-response 1.5 nM to 30 µM, 3 days
Description: An in vitro assay for assessing the efficacy of compounds for use in treating, ameliorating, delaying, curing and/or preventing a disease or condition associated with muscle cells and/or satellite cells is described in example 78. Herein, the generation of myotubes and satellite cells after adding a compound to a myotube assay workflow is assessed. Said myotube assay workflow is derived from wild-type or DMD human induced pluripotent stem cells (WT hiPSC or DMD hiPSC). Before the addition of said compound, the assay comprises satellite-like cells, but no significant amount of myotubes.
The efficacy of said compound for use in treating, ameliorating, delaying, curing and/or preventing a disease or condition associated with muscle cells and/or satellite cells is positively correlated with the generation of myotubes (i.e. the increase of the area occupied by myotubes on the assay) and/or satellite cells (i.e. the increase of the number of satellite cells) in the assay after adding said compound. The generation of myotubes by the addition of said compound is expressed as the EC50 value, the concentration of said compound that corresponds with the half-maximal generation of myotubes, and the MA (normalized myotube area) value, the normalized area occupied by generated myotubes on the assay. […] Since muscle cells are formed from myotubes during myogenesis, the generation of myotubes in the assay is a good indicator of the ability of said compound to induce the formation of functional muscle cells in vivo. The number of satellite cells is measured as the percentage of Pax7 positive cells, relative to the total number of cells in the assay, as shown in Figure 3. The percentage of Pax7 is a good indicator of the ability of said compound to induce the formation of satellite cells which are able to play a role in muscle repair and regeneration in vivo.
DMD human induced pluripotent stem cells (hereafter "DMD hiPSC"), generated from the NCRM-1 hiPSC WT cell line by gene editing, or WT human induced pluripotent stem cells (hereafter "WT hiPSC"), being NCRM-1 hiPSC wt cell line, have been differentiated according to Chal et al. 2015, 2016, to produce muscle progenitors (hereafter "hMP"). The hMP population contains satellite-like cells (i.e Pax7-positive cells) and satellite cells' progenies (i.e. Myogenin-positive cells).
Figure 1 provides an example of a Myotube assay workflow. At day 0, hMP are thawed and 3.1 million cells are plated into a T75-flask coated with hESC-qualified Matrigel™ (Corning) in SkGM proliferating medium (PromoCells), supplemented with 5 µM Y-27632 (Tocris Bioscience). On day 2, SkGM proliferating medium is refreshed. On day 4, hMP are harvested and transferred into a 384-well plate coated with collagen type I at a density of 3500 cells/well in a DMEM-based medium, containing 5% of knockout serum replacement (Gibco), 1% PenStrep (Gibco), 1% MEM NEAA (Gibco) and 0.1 mM 2-mercaptoethanol (Gibco) (hereafter "K5 medium") and 5 µM Y-27632. Compounds to be tested are then added in the medium and incubated for 3 days at 37°C. On day 7, cells are fixed and immunostained. For example, myotubes (alpha-actinin staining) and satellite-like (Pax7 staining) cells can be analyzed for total myotube area per well or Pax7-positive cell quantification.
DMD hMP were put in the Myotube assay according to the workflow described in Example 2.1. In particular, compound (i) was added at concentrations ranging from 1.5 nM to 30 µM, starting from day 4. hMP were cultivated for three more days in presence of compound (i), then fixed and analyzed for quantification of total myotube area per well. Duplicates of each condition were averaged.

Compound	Emax	EC50
CC(C)c1cc(NC(=O)Nc2ccc(Oc3ccnc4[nH]c(=O)cnc34)cc2F)n(-c2ccccc2)n1 [(b), 1-(2-fluoro-4-((3-oxo-3,4-dihydropyrido[2,3-b]pyrazin-8-yl)oxy)phenyl)-3-(3-isopropyl-1-phenyl-1 H-pyrazol-5-yl)urea]	25 to 50%	≥ 5 µM
CC(C)(C)c1cnc(NC(=O)Nc2ccc(Oc3ccnc4[nH]c(=O)cnc34)c3ccccc23)s1 [(ba), 1-(5-(tert-butyl)thiazol-2-yl)-3-(4-((3-oxo-3,4-dihydropyrido[2,3-b]pyrazin-8-yl)oxy)naphthalen-1-yl)urea]	≥ 75%	< 0.5 µM
CC(C)(C)c1cc(NC(=O)Nc2ccc(Oc3ccnc4[nH]c(=O)cnc34)c3ccccc23)n(-c2ccc3ncccc3c2)n1 [(bb), 1-(3-(tert-butyl)-1-(quinolin-6-yl)-1 H-pyrazol-5-yl)-3-(4-((3-oxo-3,4-dihydropyrido[2,3-b]pyrazin-8-yl)oxy)naphthalen-1-yl)urea]	≥ 75%	< 0.5 µM
CSc1cc(Oc2ccnc3[nH]c(=O)cnc23)ccc1NC(=O)Nc1cc(C(C)(C)C)nn1-c1ccc(C)nc1 [(bd), 1-(3-(tert-butyl)-1-(6-methylpyridin-3-yl)-1 H-pyrazol-5-yl)-3-(2-(methylthio)-4-((3-oxo-3,4-dihydropyrido[2,3-b]pyrazin-8-yl)oxy)phenyl)urea]	≥ 75%	< 0.5 µM
CSc1cc(Oc2ccnc3c2CCCN3)ccc1NC(=O)Nc1cc(C(C)(C)C)nn1-c1ccccc1 [(be), 1-(3-(tert-butyl)-1-phenyl-1H-pyrazol-5-yl)-3-(2-(methylthio)-4-((5,6,7,8-tetrahydro-1,8-naphthyridin-4-yl)oxy)phenyl)urea]	≥ 75%	1 to 5 µM
CNC(=O)c1cc(Oc2ccc(NC(=O)Nc3cc(C(C)(C)C)nn3-c3ccc4ncccc4c3)c3ccccc23)ccn1 [(bf), 4-((4-(3-(3-(tert-butyl)-1-(quinolin-6-yl)-1 H-pyrazol-5-yl)ureido)naphthalen-1-yl)oxy)-N-methylpicolinamide]	≥ 75%	1 to 5 µM
CSc1cc(Oc2ccnc3[nH]c(=O)cnc23)ccc1NC(=O)Nc1cc(C(C)(C)C)nn1CCCN1CCOCC1 [(bh), 1-(3-(tert-butyl)-1-(3-morpholinopropyl)-1 H-pyrazol-5-yl)-3-(2-(methylthio)-4-((3-oxo-3,4-dihydropyrido[2,3-b]pyrazin-8-yl)oxy)phenyl)urea]	≥ 75%	≥ 5 µM
CSc1cc(Oc2ccnc(NC(=O)OC(C)(C)C)c2)ccc1NC(=O)Nc1cc(C(C)(C)C)nn1-c1ccccc1 [(bi), tert-butyl (4-(4-(3-(3-(tert-butyl)-1-phenyl-1H-pyrazol-5-yl)ureido)-3-(methylthio)phenoxy)pyridin-2-yl)carbamate]	≥ 75%	< 0.5 µM
CSc1cc(Oc2ccnc(N)c2)ccc1NC(=O)Nc1cc(C(C)(C)C)nn1-c1ccccc1 [(bj), 1-(4-((2-aminopyridin-4-yl)oxy)-2-(methylthio)phenyl)-3-(3-(tert-butyl)-1-phenyl-1H-pyrazol-5-yl)urea hydrochloride]	≥ 75%	≥ 5 µM
CC(C)c1cc(Oc2ccnc3[nH]c(=O)cnc23)ccc1NC(=O)Nc1cc(C(C)(C)C)nn1-c1ccccc1 [(bk), 1-(3-(tert-butyl)-1-phenyl-1H-pyrazol-5-yl)-3-(2-isopropyl-4-((3-oxo-3,4-dihydropyrido[2,3-b]pyrazin-8-yl)oxy)phenyl)urea]	≥ 75%	≥ 5 µM
CC(C)(C)c1cc(NC(=O)Nc2ccc(Oc3ccncc3)cc2)n(-c2ccccc2)n1 [(bl), 1-(3-(tert-butyl)-1-phenyl-1 H-pyrazol-5-yl)-3-(4-(pyridin-4-yloxy)phenyl)urea]	50 to 75%	0.5 to 1 µM
CSc1cc(Oc2ccnc3[nH]c(=O)cnc23)ccc1NC(=O)Nc1cc(C(C)(C)C)nn1-c1ccc2ncccc2c1 [(bm), 1-(3-(tert-butyl)-1-(quinolin-6-yl)-1 H-pyrazol-5-yl)-3-(2-(methylthio)-4-((3-oxo-3,4-dihydropyrido[2,3-b]pyrazin-8-yl)oxy)phenyl)urea]	≥ 75%	< 0.5 µM
CSc1cc(Oc2ccnc3[nH]c(=O)cnc23)ccc1NC(=O)Nc1cc(C(C)(C)C)nn1C1CCCCC1 [(bn), 1-(3-(tert-butyl)-1-cyclohexyl-1H-pyrazol-5-yl)-3-(2-(methylthio)-4-((3-oxo-3,4-dihydropyrido[2,3-b]pyrazin-8-yl)oxy)phenyl)urea]	50 to 75%	≥ 5 µM
CC(C)(C)c1cc(NC(=O)Nc2ccc(Oc3ccnc4[nH]c(=O)cnc34)c(F)c2F)n(-c2ccccc2)n1 [(bo), 1-(3-(tert-butyl)-1-phenyl-1 H-pyrazol-5-yl)-3-(2,3-difluoro-4-((3-oxo-3,4-dihydropyrido[2,3-b]pyrazin-8-yl)oxy)phenyl)urea]	≥ 75%	< 0.5 µM
CSc1cc(Oc2ccnc(NC(=O)CN(C)C(=O)OC(C)(C)C)c2)ccc1NC(=O)Nc1cc(C(C)(C)C)nn1-c1ccccc1 [(bp), tert-butyl (2-((4-(4-(3-(3-(tert-butyl)-1-phenyl-1H-pyrazol-5-yl)ureido)-3-(methylthio)phenoxy)pyridin-2-yl)amino)-2-oxoethyl)(methyl)carbamate]	≥ 75%	< 0.5 µM
CNCC(=O)Nc1cc(Oc2ccc(NC(=O)Nc3cc(C(C)(C)C)nn3-c3ccccc3)c(SC)c2)ccn1 [(bq), N-(4-(4-(3-(3-(tert-butyl)-1-phenyl-1H-pyrazol-5-yl)ureido)-3-(methylthio)phenoxy)pyridin-2-yl)-2-(methylamino)acetamide]	≥ 75%	
CNC(=O)c1cc(Oc2ccc(NC(=O)Nc3cc(C(C)(C)C)nn3-c3ccccc3)c(SC)c2)ccn1 [(br), 4-(4-(3-(3-(tert-butyl)-1-phenyl-1H-pyrazol-5-yl)ureido)-3-(methylthio)phenoxy)-N-methylpicolinamide]	≥ 75%	≥ 5 µM
CSc1cc(Oc2ccnc3nccnc23)ccc1NC(=O)Nc1cc(C(C)(C)C)nn1-c1ccccc1 [(bs), 1-(3-(tert-butyl)-1-phenyl-1 H-pyrazol-5-yl)-3-(2-(methylthio)-4-(pyrido[2,3-b]pyrazin-8-yloxy)phenyl)urea]	≥ 75%	≥ 5 µM
CC(C)(C)c1cc(NC(=O)Nc2cc(F)c(Oc3ccnc4[nH]c(=O)cnc34)cc2F)n(-c2ccccc2)n1 [(bt), 1-(3-(tert-butyl)-1-phenyl-1 H-pyrazol-5-yl)-3-(2,5-difluoro-4-((3-oxo-3,4-dihydropyrido[2,3-b]pyrazin-8-yl)oxy)phenyl)urea]	≥ 75%	0.5 to 1 µM
CSc1cc(Oc2cccc3[nH]c(=O)cnc23)ccc1NC(=O)Nc1cc(C(C)(C)C)nn1-c1ccccc1 [(bu), 1-(3-(tert-butyl)-1-phenyl-1H-pyrazol-5-yl)-3-(2-(methylthio)-4-((2-oxo-1,2-dihydroquinoxalin-5-yl)oxy)phenyl)urea]	25 to 50%	≥ 5 µM
CSc1cc(Oc2ncnc3[nH]c(=O)cnc23)ccc1NC(=O)Nc1cc(C(C)(C)C)nn1-c1ccccc1 [(bv), 1-(3-(tert-butyl)-1-phenyl-1H-pyrazol-5-yl)-3-(2-(methylthio)-4-((7-oxo-7,8-dihydropteridin-4-yl)oxy)phenyl)urea]	≥ 75%	≥ 5 µM
CSc1cc(Oc2ccnc3[nH]c(=O)cnc23)ccc1NC(=O)Nc1cc(C(C)(C)C)no1 [(bx), 1-(3-(tert-butyl)isoxazol-5-yl)-3-(2-(methylthio)-4-((3-oxo-3,4-dihydropyrido[2,3-b]pyrazin-8-yl)oxy)phenyl)urea]	≥ 75%	0.5 to 1 µM
